From patent US11680047B2, “Enhanced erythropoiesis and iron metabolism” (FibroGen, Inc., priority 2003, dated 2023)

Key:
[1] = tested on: Ceruloplasmin (CP); assay: Microarray gene expression in Hep3B cells: ceruloplasmin; format: cell-based, human; conditions: 2 μM, 6 hr
Method: Hep3B cells (ATCC No. HB-8064) were grown in DMEM containing 8% fetal bovine serum. Hep3B cells were seeded into 6-well culture dishes at ˜500,000 cells per well. After 8 hours, the media was changed to DMEM containing 0.5% fetal bovine serum and the cells were incubated for an additional 16 hours. Compound B or compound D was added to the cells (2 μM final concentration) and the cells were incubated for various times. Control cells (no compound treatment, addition of DMSO alone) were harvested at 0, 6 and 48 hours. Harvested cells were assessed for cell viability (GUAVA), or added to RNA extraction buffer (RNeasy, Qiagen) and stored at −20° C. for subsequent RNA purification. Replicate microarrays were generated using RNA isolated from replicate experiments conducted on different days. Total RNA was isolated from cells using the RNeasy kit (Qiagen).
RNA was precipitated in 0.3 M sodium acetate (pH 5.2), 50 ng/ml glycogen, and 2.5 volumes of ethanol for one hour at −20° C. Samples were centrifuged and pellets were washed with cold 80% ethanol, dried, and resuspend in water. Double stranded cDNA was synthesized using a T7-(dT)24 first strand primer (Affymetrix, Inc., Santa Clara Calif.) and the SUPERSCRIPT CHOICE system (Invitrogen) according to the manufacturer's instructions. The final cDNA was extracted with an equal volume of 25:24:1 phenol:chloroform:isoamyl alcohol using a PHASE LOCK GEL insert (Brinkman, Inc., Westbury N.Y.). The aqueous phase was collected and cDNA was precipitated using 0.5 volumes of 7.5 M ammonium acetate and 2.5 volumes of ethanol. Alternatively, cDNA was purified using the GENECHIP sample cleanup module (Affymetrix) according to the manufacturer's instructions.
Biotin-labeled cRNA was synthesized from the cDNA in an in vitro […] (IVT) reaction using a BIOARRAY HighYield RNA transcript labeling kit (Enzo Diagnostics, Inc., Farmingdale N.Y.) according to the manufacturer's instructions. Final labeled product was purified and fragmented using the GENECHIP sample cleanup module (Affymetrix) according to the manufacturer's instructions.
Hybridization cocktail was prepared by bringing […] probe to […] in 1× hybridization buffer (100 mM MES, 1 M [Na^+], 20 mM EDTA, 0.01% Tween 20), 100 µg/ml herring sperm DNA, 500 µg/ml acetylated BSA, 0.03 nM contol oligo B2 (Affymetrix), and 1×GENECHIP eukaryotic hybridization control (Affymetrix). The cocktail was sequentially incubated at 99° C. for 5 minutes and 45° C. for 5 minutes, and then centrifuged for 5 minutes. The Human Genome U133A array (Affymetrix) was brought to room temperature and then prehybridized with 1× hybridization buffer at 45° C. for 10 minutes with rotation. The buffer was then replaced with […] hybridization cocktail and the array was hybridized for 16 hours at 45° C. at 60 rpm with counter balance. Following hybridization, arrays were washed once with 6×SSPE, 0.1% Tween 20, and then washed and stained using R-phycoerythrin-conjugated streptavidin (Molecular Probes, Eugene Oreg.), goat anti-streptavidin antibody (Vector Laboratories, Burlingame Calif.), and a GENECHIP Fluidics Station 400 instrument (Affymetrix) according to the manufacturer's micro_1v1 protocol (Affymetrix). Arrays were analyzed using a GENEARRAY scanner (Affymetrix) and Microarray Suite software (Affymetrix).
The Human Genome U133A array (Affymetrix) represents all sequences in the Human Unigene database build 133 (National Center for Biotechnology Information, Bethesda Md.), including approximately 14,500 well-characterized human genes.
RNA quality was monitored by capillary electrophoresis (Agilent Bioanalyzer). Hybridization cocktails were prepared as described (Affymetrix), and hybridized to Affymetrix human U133A arrays containing 22,283 probe sets. Array performance was analyzed with Affymetrix MicroArray Suite (MAS) software and individual probe sets were assigned “present”, “marginal, and “absent” calls according to software defaults. […]

[2] = tested on: erythropoietin-resistant anemia; conditions: Salvarani et al. (1996); Goch et al. (1995); cited from earlier work
[3] = tested on: EPO production; assay: Secreted EPO (ELISA) in Hep3B cells treated with IL-6; format: cell-based; conditions: 10 ng/ml IL-6, absence of compound
Method: Secreted EPO levels were determined using a commercially available ELISA kit (R&D Systems, catalog no. DEP00). […] As shown in FIGS. 27A and 27B, Hep3B cells treated with IL-6 increased EPO expression slightly above that in non-treated cells. Specifically, EPO levels in control cells was approximately 20 mIU/ml, while that in cells treated with 10 ng/ml IL-6 was approximately 50 mIU/ml.

[4] = tested on: E-selectin; assay: TNF-α induced E-selectin expression in HUVEC; format: cell-based, human; conditions: 1 ng/ml TNF-α, various concentrations, 1 day
Description: (§1) Endothelial E-selectin belongs to the selectin family of cellular adhesion molecules mediating the initial attachment of leukocytes to vascular endothelial cells in inflammatory events. IL-1β, TNF-α, and lipopolysaccharides each induce the expression of E-selectin. (See, e.g., Bevilacqua et al. (1987) Proc Natl Acad Sci USA 84:9238-9242 and Bevilacqua and van Furth (1993) J Leukoc Biol 54:363-378.) To investigate the effect of HIF prolyl hydroxylase inhibition on TNF-α induced E-selectin expression, HUVECs were stimulated with 1 ng/ml TNF-α in the absence or presence of various concentrations of compound B or compound C for 1 day. E-selectin and VCAM expression were then measured.

[5] = tested on: VCAM-1; assay: IL-1β induced VCAM-1 expression in HUVEC; format: cell-based, human; conditions: IL-1β 1 ng/ml, 1 day
Method: To investigate the effect of HIF prolyl hydroxylase inhibition on IL-1β induced VCAM-1 expression, HUVEC (human umbilical vein endothelial cells) were stimulated with IL-1β in the absence or presence of various concentrations of compound B or compound C for 1 day. VCAM expression was then measured.

[6] = tested on: E-selectin; assay: IL-1β induced E-selectin expression in HUVEC; format: cell-based, human; conditions: 1 ng/ml IL-1β, 1 day
Method: To investigate the effect of HIF prolyl hydroxylase inhibition on IL-1β induced E-selectin expression, HUVECs were stimulated with 1 ng/ml IL-1β in the absence or presence of various concentrations of compound B or compound C for 1 day. E-selectin expression was then measured.

[7] = tested on: VCAM-1; assay: TNF-α induced VCAM-1 expression in HUVEC; format: cell-based, human; conditions: TNF-α 1 ng/ml, 1 day
Description: Endothelial cell adhesiveness for lymphocytes occurs, in part, by endothelial cell expression of vascular cell adhesion molecule (VCAM)-1. VCAM-1 expression in endothelial cells is induced by various inflammatory cytokines, such as TNF-α. To investigate the effect of HIF prolyl hydroxylase inhibition on TNF-α induced VCAM-1 expression, HUVEC (human umbilical vein endothelial cells) were stimulated with TNF-α in the absence or presence of various concentrations of compound B or compound C for 1 day. VCAM expression was then measured.
as §1

[8] = tested on: NRAMP2; assay: NRAMP2 mRNA in small intestine of mice after IV administration (microarray); format: in vivo, mouse; conditions: 60 mg/kg IV, 4 hours
Method: In another experiment, mRNA was isolated from small intestine harvested 4 hours following IV administration of 60 mg/kg compound A, compound B, and compound C to mice. Probes were prepared from each of two animals from 5 treatment groups, and hybridized to Affymetrix mouse MOE430Aplus2 microarrays (one animal per array). Statistical comparisons of data obtained from arrays from treated versus non-treated animals was performed. […] Expression levels are shown as fold-induction over control, untreated animals for each expressed gene.

[9] = tested on: E-selectin; assay: Cell surface E-selectin (cell-based ELISA) in HUVEC pretreated with compound, then cytokines; design: species or system human; conditions: HUVEC pretreated 24 hours
Method: HUVEC were treated with vehicle control or various concentrations of compound B or compound C for 24 hours. Cells were washed and then stimulated with either 1 ng/ml TNF-α, 1 ng/ml IL-1β, or a combination of 1 ng/ml each of TNF-α, IL-1β, and IFN-γ for 4 hours. Cell surface expression of E-selectin was measured by cell-based ELISA.

Compound: COc1ccc(CCN(CCC(=O)NO)S(=O)(=O)c2ccc(NC(=O)N(Cc3ccccc3)Cc3ccccc3)cc2)cc1 [Compound D, 3-{[4-(3,3-Dibenzyl-ureido)-benzenesulfonyl]-[2-(4-methoxy-phenyl)-ethyl]-amino}-N-hydroxy-propionamide]
- Ceruloplasmin (CP) fold-increase in mRNA levels above control, first data point [1]: 2.06 fold
- Ceruloplasmin (CP) fold-increase in mRNA levels above control, second data point [1]: 2.387 fold

Compound: CC(=O)N(O)CCCCCNC(=O)CCC(=O)N(O)CCCCCNC(=O)CCC(=O)N(O)CCCCCN [desferrioxamine]
- efficacy in erythropoietin-resistant anemia, e.g., anemia of chronic disease [2]: some efficacy

Compound: IL-6: cytokine added to Hep3B cells, alone or with compound A or compound B [reference compound]
- EPO levels [3]: approximately 50 mIU/ml

Compound: O=C(O)CNC(=O)c1ncc2cc(Sc3ccccc3)ccc2c1O [C, [(4-Hydroxy-7-phenylsulfanyl-isoquinoline-3-carbonyl)-amino]-acetic acid]
- inhibition of TNF-α induced E-selectin expression [4]: dose-dependent inhibition of TNF-α induced VCAM and E-selectin expression
- inhibition of IL-1β induced VCAM-1 expression [5]: does-dependent inhibition of IL-1β induced VCAM-1 expression
- inhibition of IL-1β induced E-selectin expression [6]: dose-dependent inhibition of IL-1β induced E-selectin expression
- inhibition of TNF-α induced VCAM-1 expression [7]: does-dependent inhibition of TNF-α induced VCAM-1 expression
- NRAMP2 mRNA expression in small intestine [8]: increasing expression of NRAMP2 in intestine
- induction of cell surface E-selectin expression ([9]; then 1 ng/ml TNF-α or 1 ng/ml IL-1β for 4 hours): inhibited the induction of cell surface E-selectin expression
- cell surface E-selectin expression ([9]; then TNF-α, IL-1β and IFN-γ, 1 ng/ml each, 4 hours): decreased E-selectin expression
